Where two headings read alike, the source gives them in different places. *1 amine or outer side, *2 acyl side, *3 side chain or, on linkers, in order; H or OH if unused. Where a SMILES comes first, the peptide text is derived from it. Bridges are numbered along the chain shown (N, C = ends). [ ]: non-standard residue; d: D form. The star is where a group is joined. 2Nal = N[C@@H](Cc1ccc2ccccc2c1)C(=O)O; AEF = NCCOc1ccc(C[C@H](N)C(=O)O)cc1; X1 = O=C(Cc1ccc(CN[*:1])cc1)[*:2]; 3Pal = N[C@@H](Cc1cccnc1)C(=O)O; αMeL = CC(C)C[C@](C)(N)C(=O)O; β3hL = CC(C)C[C@H](N)CC(=O)O; Orn = NCCC[C@H](N)C(=O)O; Pyrrolidide = C1CCN(*)C1; Dab = NCC[C@H](N)C(=O)O
What was measured:
[1] = Peptide stability in simulated gastric fluid (SGF); assay type: in vitro ADME; settings: pig, pH 1.2, pepsin, 37° C.
Method in brief: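 Peptide (10 μM final) incubated at 37 °C in USP SGF, pH 1.2 with porcine pepsin 3.2 g/L; aliquots at 0, 1 and 4 h quenched in acidified acetonitrile.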

human IL-23R = molecular target: T1, human IL-23R (Homo sapiens, UniProt Q5VWK5); test: Binding assay: displacement of fluorophore (TAMRA)-labelled reference compound from human IL-23R (BRET, Nluc-IL23R fusion protein membranes); settings: for Emax: read-out: % displacement (hIL-23R binding)
T1 construct: Nanoluc luciferase (Nluc); secretion signal encoded by the plasmid (not specified); expressed in transfected cells; crude membranes used in the assay
T1 sequence (Q5VWK5 22-629): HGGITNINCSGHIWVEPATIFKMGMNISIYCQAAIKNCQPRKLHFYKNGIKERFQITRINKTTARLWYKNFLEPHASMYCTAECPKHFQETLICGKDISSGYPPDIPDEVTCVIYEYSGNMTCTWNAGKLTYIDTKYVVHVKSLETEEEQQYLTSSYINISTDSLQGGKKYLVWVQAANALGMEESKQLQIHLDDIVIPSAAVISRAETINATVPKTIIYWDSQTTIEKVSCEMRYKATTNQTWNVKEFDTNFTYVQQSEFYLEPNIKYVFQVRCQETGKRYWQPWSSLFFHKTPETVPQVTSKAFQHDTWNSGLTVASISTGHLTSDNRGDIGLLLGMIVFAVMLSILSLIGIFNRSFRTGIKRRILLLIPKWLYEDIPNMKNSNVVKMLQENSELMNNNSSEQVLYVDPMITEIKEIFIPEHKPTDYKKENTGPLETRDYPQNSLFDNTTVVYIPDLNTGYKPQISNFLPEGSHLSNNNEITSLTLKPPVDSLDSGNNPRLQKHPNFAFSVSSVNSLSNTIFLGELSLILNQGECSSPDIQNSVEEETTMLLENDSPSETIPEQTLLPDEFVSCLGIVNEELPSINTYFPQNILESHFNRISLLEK
From the text: The assay principle relies on Bioluminescence Resonance Energy Transfer (BRET) between a fluorophore-labelled reference compound binding to the IL-23R part of a fusion protein consisting of the IL-23R fused to a Nanoluc luciferase enzyme (Nanoluc). The Nanoluc is placed in the N-terminus in close proximity to the binding domain of the ligand. Upon close proximity between the fluorophore of the fluorophore-labelled compound and the Nanoluc of the fusion protein, bioluminescence energy generated from conversion of a Nanoluc substrate, is transferred to the fluorophore resulting in an increase in BRET. In presence of an unlabelled compound, the unlabelled compound displaces the fluorophore-labelled peptide from its binding site resulting in a decrease in BRET. The concentration for which half of the fluorophore-labelled peptide is displaced by the unlabelled compound depends on the affinity of the compound for the IL-23R, and is termed the IC50 concentration.
The plasmid also contained a gene to confer resistance for the antibiotic hygromycin. A cell line stably expressing the Nluc-IL23R fusion protein was generated by transfection of HEK293 cells with the expression plasmid and selected with hygromycin for 3 weeks in Growth medium consisting of DMEM w/Glutamax-I containing, 10% V/V FBS, 1% V/V P/S, 1 mM Sodium Pyruvate, and 1× NEAA, and 0.3 mg/mL hygromycin. The remaining cells were propagated and considered a stable expressing Nluc-IL23R fusion protein pool clone.
Cells expressing the Nluc-IL23R fusion protein were expanded in Growth medium and membranes prepared by homogenization of a cell pellet from 18 T175 flasks (4° C. in subsequent steps). The cell pellet was lysed Tris 10 mM, 7.5, 1 mM EDTA and protease inhibitors (Complete, Roche) and homogenized using a 15 mL glass-dounce by 50 strokes. The homogenate was spun at spin @1500 rpm for 10 min, the supernatant transferred to SV-34 tubes and spun at 40000 g for 20 min at 4° C. to pellet the crude membranes. The supernatant was then removed, the pellet resuspended in 5 mL buffer containing 50 mM HEPES pH 7.4, 5 mM EGTA, and 5 mM MgCl2, and homogenized. Aliquots of the resuspended and homogenized membranes containing the Nluc-IL23R fusion protein were stored at −80° C. until use.
The plate was sealed with light impermeable plate seals, and incubated on an orbital shaker 400 rpm for 2 hours at room temperature. To determine the BRET ratio, the plate seal was removed and 25 μL of the Nanoluc substrate (Promega N1572) diluted 1:500 was added to each well and incubated for 1-2 minutes on an orbital shaker at 400 rpm. […] The BRET ratio was calculated as the fluorescence from the TAMRA/nanoluc bioluminescence.
Compound potency (IC50) and maximal displacement (% displacement) were estimated by computer-aided curve fitting using a 4-parameter logistic (4PL) non-linear model. The IC50 and maximal for each compound was determined by computer-aided curve fitting using a 4-parameter logistic (4PL) non-linear model.

[2] = system: IL-23 mediated STAT3 signalling (DB cells); test: Functional inhibition of IL-23 mediated STAT3 signalling (phospho-STAT3 Tyr705) in DB cells; assay type: cell-based, human; settings: for hIL-23 (pSTAT3) antagonist % inhibition: Table 3-2, maximal inhibitory response, EC80 of hIL-23
Method in brief: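 DB cells preincubated 15 min with inhibitor at 37° C, 5% CO2, then stimulated 90 min with hIL-23 at EC80. Lysate phospho-STAT3 measured by MSD electrochemiluminescence. Signal normalized to IL-23-alone and buffer wells; IC50 and maximal inhibition from concentration–response curves.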

[3] = Peptide stability in simulated intestinal fluid (SIF); assay type: in vitro ADME; settings: pig, 10 μM
Method in brief: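 Peptide at 10 μM final in USP-type SIF (10 g/L porcine pancreatin, phosphate buffer pH 6.8), shaken at 37 °C. Samples at 0, 1 and 4 h quenched in acetonitrile/0.1% formic acid and analysed by LC-HRMS. Percent remaining calculated from absolute peak areas relative to time zero.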

[4] = Table 3-2, EC80 of hIL-23, read-out: hIL-23 (pSTAT3) antagonist IC50
[5] = simulated intestinal fluid, SIF, pH 6.8, pancreatin, 37° C.
[6] = simulated intestinal fluid, SIF, pH 6.8, pancreatin, 37° C., read-out: SIF (% remaining 4 h)

SMILES	remaining at 1 h, 10 µM [1]	remaining at 4 h, 10 µM [1]	Emax (human IL-23R)	IC50 [2, 4]	hIL-23 (pSTAT3) antagonist % inhibition [2]	remaining at 1 h, 10 µM [3, 5]	remaining at 4 h, 10 µM [3, 6]	IC50 (human IL-23R)	IC50 ([2]; EC80 of hIL-23, read-out: IC50 (pSTAT3))	remaining at 4 h, 10 µM ([3]; 37 °C, simulated intestinal fluid pH 6.8 with porcine pancreatin, read-out: SIF (% after 4 h), intact peptide remaining)
CC(C)C[C@@H]1NC(=O)[C@H](Cc2c[nH]c3ccccc23)NC(=O)[C@H](Cc2c[nH]c3ccccc23)NC(=O)[C@@H]2CSCC(=O)CSC[C@H](NC(=O)[C@H]([C@@H](C)O)NC(=O)[C@@H](NC(=O)CN)CSCC(=O)CSC[C@@H](C(=O)N[C@@H](CO)C(N)=O)NC1=O)C(=O)N[C@@H](Cc1c[nH]c3ccccc13)C(=O)N[C@@H](CCC(=O)O)C(=O)N2 (single isomer, unassigned) [I1 (isomer 3), H-GC(1a)TC(2a)WEC(2a)WWLC(1a)S-[NH2], reference compound]	92%	94%	105%	> 1000 nM	83%	0%	0%			
CSCC[C@H](NC(=O)[C@@H]1CSCC(=O)CSC[C@H](NC(=O)[C@@H](N)CCC(=O)O)C(=O)N[C@@H](Cc2c[nH]c3ccccc23)C(=O)N[C@@H](CC(C)C)C(=O)N[C@H]2CSCC(=O)CSC[C@H](NC(=O)[C@H](CC(N)=O)NC(=O)[C@H](CCCNC(=N)N)NC(=O)[C@H](Cc3ccc(O)cc3)NC(=O)[C@H](Cc3ccc(O)cc3)NC2=O)C(=O)N[C@@H](CC(N)=O)C(=O)N1)C(N)=O (single isomer, unassigned) [I4 (isomer 3), H-EC(4a)WLC(5a)YYRNC(5a)NC(4a)M-[NH2], reference compound]	99%	99%	84%	> 1000 nM	23%	0%	0%			
CNC(=O)[C@H](Cc1cccnc1)NC(=O)[C@H](CCN)NC(=O)[C@@H]1CCC(=O)NCc2ccc(cc2)CC(=O)N[C@@H](CO)C(=O)N[C@H]2CCC(=O)NCC[C@H](NC(=O)[C@H](CCCCNC(C)=O)NC(=O)[C@H](Cc3c[nH]c4ccccc34)NC2=O)C(=O)N[C@@H](Cc2ccc(OCCN)cc2)C(=O)N[C@@H](Cc2ccc3ccccc3c2)C(=O)N[C@@](C)(CC(C)C)C(=O)N1 [Compound 24, [4-Aminomethyl-phenylacetyl](1c)*SE(2c)W[K(Ac)][Dab](2c)[Y(2-aminoethoxy)][2-Nal][2-Me-Leu]E(1c)[Dab][3-(3-Pyridyl)-Ala]-[NHMe]] ([X1]SEWK(Ac)[Dab][AEF][2Nal][αMeL]E[Dab][3Pal]-NHMe; lactam 3-6, N-10)	93%	90%	97%	0.058 nM	98%	91%	89%			
CNC(=O)[C@H](Cc1cccnc1)NC(=O)[C@H](CCN)NC(=O)[C@@H]1CCC(=O)NCc2ccc(cc2)CC(=O)N[C@@H](CO)C(=O)N[C@H]2CCC(=O)NCC[C@H](NC(=O)[C@H](CCC(=O)N(C)C)NC(=O)[C@H](Cc3c[nH]c4ccccc34)NC2=O)C(=O)N[C@@H](Cc2ccc(OCCN)cc2)C(=O)N[C@@H](Cc2ccc3ccccc3c2)C(=O)N[C@@](C)(CC(C)C)C(=O)N1 [Compound 30, [4-Aminomethyl-phenylacetyl](1c)*SE(2c)W[Q(2Me)][Dab](2c)[Y(2-aminoethoxy)][2-Nal][2-Me-Leu]E(1c)[Dab][3-(3-Pyridyl)-Ala]-[NHMe]] ([X1]SEWE(NMe2)[Dab][AEF][2Nal][αMeL]E[Dab][3Pal]-NHMe; lactam 3-6, N-10)	92%	89%	104%	0.077 nM	103%	94%				
CNC(=O)[C@H](Cc1cccnc1)NC(=O)[C@H](CCN)NC(=O)[C@@H]1CCC(=O)NCc2ccc(cc2)CC(=O)N[C@@H](CO)C(=O)N[C@H]2CCC(=O)NCC[C@H](NC(=O)[C@H](CCC(=O)N3CCCC3)NC(=O)[C@H](Cc3c[nH]c4ccccc34)NC2=O)C(=O)N[C@@H](Cc2ccc(OCCN)cc2)C(=O)N[C@@H](Cc2ccc3ccccc3c2)C(=O)N[C@@](C)(CC(C)C)C(=O)N1 [Compound 27, [4-Aminomethyl-phenylacetyl](1c)*SE(2c)W[Q(pyrrolidin)][Dab](2c)[Y(2-aminoethoxy)][2-Nal][2-Me-Leu]E(1c)[Dab][3-(3-Pyridyl)-Ala]-[NHMe]] ([X1]SEWE(Pyrrolidide)[Dab][AEF][2Nal][αMeL]E[Dab][3Pal]-NHMe; lactam 3-6, N-10)	101%	96%	97%	0.23 nM	100%	90%	85%	0.017 nM		
CC(C)C[C@]1(C)NC(=O)[C@H](Cc2ccc3ccccc3c2)NC(=O)[C@H](Cc2ccc(OCCN)cc2)NC(=O)[C@@H]2CCNC(=O)CC[C@H](NC(=O)[C@H](CO)NC(=O)Cc3ccc(cc3)CNC(=O)CC[C@@H](C(=O)N[C@@H](CCN)C(=O)N[C@@H](Cc3cn(C)cn3)C(N)=O)NC1=O)C(=O)N[C@@H](Cc1c[nH]c3ccccc13)C(=O)N[C@@H](CCC(N)=O)C(=O)N2 [Compound 14, [4-Aminomethyl-phenylacetyl](1c)*SE(2c)WQ[Dab](2c)[Y(2-aminoethoxy)][2-Nal][2-Me-Leu]E(1c)[Dab][H(Me)]-[NH2]]	93%		102%	7.2 nM	99%	98%		0.11 nM		
CNC(=O)[C@H](Cc1cccnc1)NC(=O)[C@H](CCN)NC(=O)[C@@H]1CCC(=O)NCc2ccc(cc2)CC(=O)N[C@@H](CO)C(=O)N[C@H]2CCC(=O)NCC[C@H](NC(=O)[C@H](CCCN)NC(=O)[C@H](Cc3c[nH]c4ccccc34)NC2=O)C(=O)N[C@@H](Cc2ccc(OCCN)cc2)C(=O)N[C@@H](Cc2ccc3ccccc3c2)C(=O)N[C@@](C)(CC(C)C)C(=O)N1 [Compound 28, [4-Aminomethyl-phenylacetyl](1c)*SE(2c)W[Orn][Dab](2c)[Y(2-aminoethoxy)][2-Nal][2-Me-Leu]E(1c)[Dab][3-(3-Pyridyl)-Ala]-[NHMe]] ([X1]SEW[Orn][Dab][AEF][2Nal][αMeL]E[Dab][3Pal]-NHMe; lactam 3-6, N-10)	100%		97%	0.052 nM	101%	106%		0.011 nM		
CC(C)C[C@@H](CC(N)=O)NC(=O)[C@H](Cc1cccnc1)NC(=O)[C@H](CCN)NC(=O)[C@@H]1CCC(=O)NCc2ccc(cc2)CC(=O)N[C@@H](CO)C(=O)N[C@H]2CCC(=O)NCC[C@H](NC(=O)[C@H](CCC(N)=O)NC(=O)[C@H](Cc3c[nH]c4ccccc34)NC2=O)C(=O)N[C@@H](Cc2ccc(OCCN)cc2)C(=O)N[C@@H](Cc2ccc3ccccc3c2)C(=O)N[C@@](C)(CC(C)C)C(=O)N1 [Compound 11, [4-Aminomethyl-phenylacetyl](1c)*SE(2c)WQ[Dab](2c)[Y(2-aminoethoxy)][2-Nal][2-Me-Leu]E(1c)[Dab][3-(3-Pyridyl)-Ala][beta-hLeu]-[NH2]] ([X1]SEWQ[Dab][AEF][2Nal][αMeL]E[Dab][3Pal][β3hL]-NH2; lactam 3-6, N-10)	98%	97%	103%	0.68 nM	98%	101%		0.024 nM	0.68 nM	102%
CNC(=O)[C@H](Cc1cccnc1)NC(=O)[C@H](CCN)NC(=O)[C@@H]1CCC(=O)NCc2ccc(cc2)CC(=O)N[C@@H](C)C(=O)N[C@H]2CCC(=O)NCC[C@H](NC(=O)[C@H](CCC(N)=O)NC(=O)[C@H](Cc3c[nH]c4ccccc34)NC2=O)C(=O)N[C@@H](Cc2c[nH]c3c(F)cccc23)C(=O)N[C@@H](Cc2ccc3ccccc3c2)C(=O)NC(C)(C)C(=O)N1 [Compound 47, [4-Aminomethyl-phenylacetyl](1c)*AE(2c)WQ[Dab](2c)[7-F-Trp][2-Nal][Aib]E(1c)[Dab][3-(3-Pyridyl)-Ala]-[NHMe]]	103%	85%		0.33 nM	98%	97%	92%	0.069 nM		

Source: patent US20260327264A1, “PEPTIDE INHIBITORS OF INTERLEUKIN-23 RECEPTOR” (Zealand Pharma A/S, priority 2023, published 2026)
